We go through nine molecules from patent US8772334B2, “Synergistic antimicrobial mixtures” (priority 2008, dated 2014).

For experiment [1], the system named is mildew. Kind of experiment: Outdoor exposure of wood-plastic composite panels including biocides, mildew growth (ASTM D 3274-94). Also on record: key: 10 - No mildew growth; 9 - Very slight growth; 8 - Slight (very good); 7 - Some growth (good); 6 - Moderate growth (considered a failure); 4 - Pronounced growth; 2 - Severe growth; 0 - Very severe growth. The following applies: WPC panel, Miami; for Mildew Growth 3 Months: 3 months outdoors; for Mildew Growth 6 Months: 6 months outdoors; for Mildew Growth 9 Months: 9 months outdoors; for Mildew Growth 12 Months: 12 months outdoors. How it is done: Several candidate biocides were tested in a typical WPC formulation, which is presented below in Table I.
WPC panels for evaluation were prepared by blending the above ingredients in a drum mixer for 30 to 35 minutes at 30 to 40 rpm and then processing the resulting mixture through a Tek Milacron extruder. This extruder is a twin-screw counter rotating conical unit having four temperature zones, for a total heated length of ten feet (3.0 m), and a 3.38 inch (86 mm) die at the exit. The temperature of extrusion was in the range of 340 to 350 degrees F. (171 to 177 degrees C.) and the WPC boards so produced had dimensions of about 5 feet (152 cm)×5½ inches (14 cm)×1 inch (2.5 cm). The WPC boards were subsequently cut into panels of one foot (30 cm) length.
Wood-plastic composite panels incorporating various biocides were prepared in accordance with the procedure set forth above in Example 1. The panels were evaluated for mildew growth by being exposed to the weather outdoors in Miami, Fla. for one year under a protocol publicly known as ASTM D 3274-94 of ASTM International (originally known as the American Society for Testing and Materials).
For the purposes of this evaluation, any biocide or combination of biocides which prevents moderate (or worse) mildew growth for an outdoor exposure period of at least 9 months is considered to have passed the weathering test.

Experiment [2] deals with Aspergillus niger, also known as ATCC 6275. Kind of experiment: MIC by spiral plater (spiral gradient endpoint) and Berenbaum FIC synergy against A. niger. Type of experiment: cell-based. The following applies: for MIC ppm, average of spiral plater replications: malt agar, 48 hours at 28° C., ppm of active fungicide, mean of twelve replications. The source says:
A method for assessing synergy of a multi-component mixture having biologically active components is described in a technical article by M. C. Berenbaum entitled “Synergy, additivism and antagonism in immunosuppression”, which was published in the Journal of Clinical Experimental Immunology. See Clinical Exp. Immunol. 28, p. 1-18 (1977).
In the method, the dose of each agent which provides a synergistic or antagonistic effect in the overall biological effect of a mixture against a particular organism is expressed as a fraction of the dose that causes the effect when the respective agent is tested alone (hereinafter referred to as “dose of X/Xe”, “Fractional Inhibitory Concentration of agent X” or “FICX”). If the sum of the FICX's for a combination of active ingredients in a mixture is 1, the combination is additive in its effect. If the sum is less than one, the combination is synergistic. If the sum is greater than one, the combination is antagonistic. The general relationship (which may be an equality or an inequality) expressed for multi-component mixtures of biologically active components is herein designated Equation 1, as follows: […]
In order to apply the Berenbaum method to compositions of the invention, mixtures of fungicidal agents are prepared. The fungicidal activity of each of the mixtures is determined and expressed in terms of a minimum inhibitory concentration, which is just sufficient to inhibit the growth of a given microbe (hereinafter referred to “MIC”) for each of the mixtures. These MICs are subsequently used to calculate FICX for each agent X of a particular mixture. All of the FICX 's for each mixture (also known as the doses of X/Xe for the mixture) are summed, and the criteria for synergism, additivism and antagonism (as set forth above in Equation 1) are used to assess the mixture.
Minimum Inhibitory Concentrations (hereinafter referred to as “MIC”) for various mixtures of biocides were determined against spore suspensions of the fungus Aspergillus niger, also known as ATCC 6275 (hereinafter referred to as “A. niger”). […]

The test system of experiment [3] is Aureobasidium pullulans, also known as ATCC 9348. Kind of experiment: MIC by spiral plater and Berenbaum FIC synergy against A. pullulans. It is filed as cell-based. The following applies: mean of twelve replications.
[4] abbreviates: 0.22 mass % biocide (0.22 mass % active).
[5] abbreviates: 0.2 mass % biocide (0.2 mass % active).
[6] abbreviates: 4.0 mass % biocide (4.0 mass % active).
The mark [7] stands for this setting: 0.23 mass % biocide (0.23 mass % active).

For `O=C1C2CC=CCC2C(=O)N1SC(Cl)(Cl)Cl` (stereo not drawn) [Captan], in experiment [1] (setting [4]), the “Mildew Growth 3 Months” value worked out at 9, the “Mildew Growth 6 Months” value stood at 1, the “Mildew Growth 9 Months” value is given as 2 and the “Mildew Growth 12 Months” value was 4.

For orientation: MIC means the smallest concentration in the dilution series that meets the test's criterion for growth inhibition. `COC(=O)Nc1nc2ccccc2[nH]1` [BCM, 2-(methoxycarbonylamino)benzimidazole]: in experiment [2] (Aspergillus niger, ATCC6275, pure BCM, read-out: MIC, average of values for Mixtures No. 2 and 3), the MIC came to 2.6 µg/mL.

Regarding `N#Cc1c(Cl)c(Cl)c(Cl)c(C#N)c1Cl` [Chlorothalonil], in experiment [1] (setting [5]), the “Mildew Growth 3 Months” value amounted to 9, the “Mildew Growth 6 Months” value stood at 2, the “Mildew Growth 9 Months” value was determined as 0 and the “Mildew Growth 12 Months” value is reported as 3.

Take `COC(=O)Nc1nc2ccccc2[nH]1` [98% BCM, methyl-N-benzimidazol-2-ylcarbamate]: in experiment [1] (setting [5]), the “Mildew Growth 3 Months” value stood at 5, the “Mildew Growth 6 Months” value stood at 1, the “Mildew Growth 9 Months” value was found to be 2 and the “Mildew Growth 12 Months” value is recorded as 4.

With zinc borate [Mixture No. 4], the “MIC ppm, average of spiral plater replications” value (“MIC ppm, average” for short) in experiment [3] is recorded as more than 1000 ppm.

Regarding Zinc Borate [99% Zinc Borate], in experiment [1] (setting [6]), the “Mildew Growth 3 Months” value came out at 8, the “Mildew Growth 6 Months” value came to 2, the “Mildew Growth 9 Months” value is on record as 6 and the “Mildew Growth 12 Months” value is recorded as 5.

For the molecule `O=C1c2ccccc2C(=O)N1SC(Cl)(Cl)Cl` [Folpet], in experiment [1] (setting [7]), the “Mildew Growth 3 Months” value stood at 10, the “Mildew Growth 6 Months” value was found to be 2, the “Mildew Growth 9 Months” value worked out at 0 and the “Mildew Growth 12 Months” value stood at 0.

Take `CCCCNC(=O)OCC#CI` [IPBC, 3-iodo-2-propynyl butyl carbamate]: the “MIC ppm, average” value in experiment [2] is listed as 0.7 ppm.

Take zinc borate [ZB]: in experiment [2], the “MIC ppm, average” value came out at 12 ppm.
